From ChEMBL document CHEMBL6087463, “Discovery of Novel 4,5,6,7-Tetrahydro-7H-pyrazolo[3,4-c]pyridin-7-one Derivatives as Orally Efficacious ATX Allosteric Inhibitors for the Treatment of Pulmonary Fibrosis” (J Med Chem, 2025) come the findings set out here.

Molecules are shown by their SMILES.

Broadly, the IC50 is the concentration that inhibits the measured activity by half.

The target in one assay is Autotaxin (Homo sapiens, UniProt Q13822). In words: Inhibition of human ATX using LPC16:0 as substrate preincubated with compound for 20 mins followed by substrate addition and measured after 1 hr by fluorescence based microplate analysis.
The target in assay [1] is Voltage-gated inwardly rectifying potassium channel KCNH2 (Homo sapiens, UniProt Q12809). In words: Inhibition of hERG expressed in CHO cells by automated patch-clamp assay. It counts as toxicity, cell-based. A general note: hERG is a cardiac potassium channel; its block is linked to QT prolongation.
Chain of Voltage-gated inwardly rectifying potassium channel KCNH2 (Q12809 whole entry): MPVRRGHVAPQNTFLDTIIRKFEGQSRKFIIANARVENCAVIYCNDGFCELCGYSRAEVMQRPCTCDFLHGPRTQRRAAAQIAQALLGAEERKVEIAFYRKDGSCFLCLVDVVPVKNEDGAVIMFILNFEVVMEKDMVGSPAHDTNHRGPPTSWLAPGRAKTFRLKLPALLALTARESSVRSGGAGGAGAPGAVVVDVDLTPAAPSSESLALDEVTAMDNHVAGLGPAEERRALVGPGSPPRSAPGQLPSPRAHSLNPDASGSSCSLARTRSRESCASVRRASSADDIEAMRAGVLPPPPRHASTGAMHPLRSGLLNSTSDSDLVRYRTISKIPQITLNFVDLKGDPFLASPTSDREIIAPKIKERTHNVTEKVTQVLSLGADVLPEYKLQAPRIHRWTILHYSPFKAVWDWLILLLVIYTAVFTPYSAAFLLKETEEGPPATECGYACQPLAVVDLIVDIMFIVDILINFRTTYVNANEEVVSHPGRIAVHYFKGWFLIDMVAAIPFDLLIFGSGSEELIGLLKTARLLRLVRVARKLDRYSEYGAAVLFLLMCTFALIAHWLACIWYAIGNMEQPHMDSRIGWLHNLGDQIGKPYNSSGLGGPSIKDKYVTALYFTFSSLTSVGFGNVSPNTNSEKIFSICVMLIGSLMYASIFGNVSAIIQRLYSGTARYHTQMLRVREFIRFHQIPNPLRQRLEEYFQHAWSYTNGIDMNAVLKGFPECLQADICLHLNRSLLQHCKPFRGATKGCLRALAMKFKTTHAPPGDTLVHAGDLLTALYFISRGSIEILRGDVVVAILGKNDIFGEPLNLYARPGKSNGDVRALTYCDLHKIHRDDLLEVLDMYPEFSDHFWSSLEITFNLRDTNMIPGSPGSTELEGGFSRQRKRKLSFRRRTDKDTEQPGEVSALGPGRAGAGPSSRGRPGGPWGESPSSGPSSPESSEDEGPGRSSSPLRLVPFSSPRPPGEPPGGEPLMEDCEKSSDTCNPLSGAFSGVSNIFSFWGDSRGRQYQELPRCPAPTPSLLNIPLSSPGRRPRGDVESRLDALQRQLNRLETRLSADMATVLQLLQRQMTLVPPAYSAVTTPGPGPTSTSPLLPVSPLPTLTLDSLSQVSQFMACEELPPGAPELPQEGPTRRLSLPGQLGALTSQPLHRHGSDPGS

For `CC(C)n1cc(-n2nc(C(=O)NN3CCCC(C(=O)O)C3)c3c2C(=O)N(c2ccccc2)CC3)cn1` (configuration not stated), on Autotaxin, the IC50 was 3.26 µM.

For `COCn1cc(-n2nc(C(=O)Nc3ccccc3C(=O)O)c3c2C(=O)N(c2ccccc2)CC3)cn1`, the IC50 in assay [1] is over 30 µM.
